The values below come from patent US10456446B2, “Use of human small leucine zipper protein in osteogenesis procedure” (Korea University Research and Business Foundation, priority 2013, dated 2019).

Ends that are not written are not given here. d = 2'-deoxy (DNA)

The test system of data set [1] is PPARγ2. The data set is described as follows: GST / His pull-down and immunoprecipitation of sLZIP with PPARγ2. Conditions: GST pull-down, transfected 293T cells. The data set is classed as binding. On the procedure: 293T cells were obtained and washed with cold PBS. The cells were re-suspended in an IP lysis buffer [25 mM of Tris-HCl (pH 7.4), 150 mM of NaCl, 1 mM of EDTA, 1% NP-40 and 5% glycerol, and a protease inhibitor]. A suspension was centrifuged at 16,000×g for 20 minutes at 4° C. Supernatants were collected and incubated with 0.5 μg of appropriate antibodies and 25 μl of protein A/G-agarose or a GST Sepharose 4B bead for 24 hours at 4° C. A protein complex was centrifuged at 1,000×g with a cold IP lysis buffer for 1 minute and washed five times. The final pellet was re-suspended in 50 μl of an SDS-sample buffer containing 5% β-mercaptoethanol and heated for 10 minutes at 100° C. A protein sample was isolated in SDS-PAGE (8 to 10%) and transferred to nitrocellulose membranes. Co-precipitated proteins were detected according to western blotting using specific antibodies.
In order to examine whether the transcriptional activity of PPARγ2 is regulated by interaction with sLZIP, interaction between sLZIP and PPARγ2 was examined. For this purpose, 293T cells were transfected with GST-sLZIP and Myc-PPARγ2. Cell lysates were obtained and GST pull-down analysis was performed using a glutathione 4B bead. A protein complex was analyzed in SDS-PAGE and then immunoblotted with specific antibodies (FIG. 2A). The 293T cells were transfected with GST-PPARγ2 and Flag-sLZIP, and identified according to GST-pull-down analysis (FIG. 2B). PPARγ2 was translated in vitro by a TNT translation system (Promega). His-sLZIP proteins were expressed in BL21 cells using an IPTG-inducement system. Purified His-sLZIP proteins were subjected to His pull-down analysis. Proteins bound to the bead were analyzed in SDS-PAGE, and then immunoblotted with anti-PPARγ2 and anti-His antibodies (FIG. 2C). GFP-PPARγ2 and Flag-sLZIP constructs were expressed in C3H10T1/2 cells, and analyzed using mouse anti-Flag and Texas Red-labeled anti-mouse antibodies under a fluorescence microscope. The nucleus was stained with DAPI (FIG. 2D).
Activation of many nuclear receptors depends on a supplement of coactivators. Therefore, a domain of sLZIP necessary for binding with PPARγ2 was examined. For this purpose, 293T cells were transfected with GST-full length sLZIP (1-354), N-terminal deletion mutant sLZIP (1-228), C-terminal deletion mutant sLZIP (229-354), CC-terminal deletion mutant sLZIP (297-354) and PPARγ2. Cell lysates were obtained and GST pull-down analysis was performed using a glutathione 4B bead. A protein complex was analyzed in SDS-PAGE, and then immunoblotted with specific antibodies (FIG. 3A). 293T cells were transfected with Flag-full length PPARγ2, full length PPARγ2, N-terminal deletion mutant PPARγ2 (1-310), C-terminal deletion mutants PPARγ2 (139-505) and GST-sLZIP. Cell lysates were obtained and GST pull-down analysis was performed. A protein complex was analyzed in SDS-PAGE, and then immunoblotted with anti-GST and anti-Flag antibodies (FIG. 3B).
For this purpose, 293T cells were transfected with GST-PPARγ2 and Flag-sLZIP and were treated or not treated with 10 nM of RZD for 24 hours. Cell lysates were obtained and GST pull-down analysis (FIG. 5A) and immunoprecipitation (FIG. 5B) were performed using a glutathione 4B bead. A protein complex was analyzed in SDS-PAGE, and immunoblotted with anti-GST and anti-Flag antibodies. GST-PARγ2 and Flag-sLZIP were expressed in the 293T cells, and the cells were treated with 10 nM of RZD according to time of day. The cell lysates were GST pull-down analyzed (FIG. 5C). 293T cells were transfected with GST-HDAC3 and Flag-sLZIP, and treated or not treated with 10 nM of RZD for 24 hours. The cell lysates were GST pull-down analyzed (FIG. 5D). Flag-sLZIP was expressed in the 293T cells, and the cells were treated with 10 nM of RZD for 24 hours. Immunoprecipitation analysis of the cell lysates was performed using anti-NCoR1 antibodies. […]

The target in data set [2] is T1, PPARγ2 (Homo sapiens, UniProt P37231).
T1 construct: expressed in transfected cells; host or cells: 293T
T1 sequence (P37231 1-505): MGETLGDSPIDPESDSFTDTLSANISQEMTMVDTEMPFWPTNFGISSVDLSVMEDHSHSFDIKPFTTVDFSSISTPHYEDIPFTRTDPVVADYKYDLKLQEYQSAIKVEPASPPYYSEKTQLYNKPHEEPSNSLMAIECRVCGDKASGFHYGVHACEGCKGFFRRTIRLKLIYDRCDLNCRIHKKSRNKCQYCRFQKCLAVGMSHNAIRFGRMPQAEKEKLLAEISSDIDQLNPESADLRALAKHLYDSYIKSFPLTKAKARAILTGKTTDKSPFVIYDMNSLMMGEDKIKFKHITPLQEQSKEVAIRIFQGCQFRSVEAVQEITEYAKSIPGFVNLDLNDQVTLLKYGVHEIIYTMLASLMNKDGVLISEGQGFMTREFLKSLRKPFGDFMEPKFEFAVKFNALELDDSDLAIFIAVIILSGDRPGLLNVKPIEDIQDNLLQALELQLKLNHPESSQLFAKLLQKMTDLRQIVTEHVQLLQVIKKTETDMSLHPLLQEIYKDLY
The data set is described as follows: PPARγ2 transcriptional activity, FABP4-Luc luciferase reporter in transfected 293T cells. Conditions: for sLZIP-mediated PPARγ2 transcriptional activity: 100 nM si-RNA, with or without 10 nM RZD. The data set is classed as cell-based. On the procedure:
C3H10T1/2 and 293T cells were plated in a 12-well culture dish at a density of 2×10^5 cells/well and incubated for 24 hours. Then, according to instructions of the manufacturer, the cells were transfected with a 0.2 μg of reporter genes and 0.1 to 0.5 μg of a laboratory plasmid using Lipofectamine 2000 or Genefectine. After 24 hours, the cells were cultured in a serum-free DMEM with or without 10 nM of rosiglitazone. siRNAs were prepared using sLZIP and HDAC target sequences (Table 1). For an RNA interference experiment, according to instructions of the manufacturer, the cells were transfected with scrambled control group RNA and appropriate siRNAs using Lipofectamine 2000. Human MSC and C3H10T/1/2 cells were infected with an adenovirus vector containing cDNA of human sLZIP or an empty vector. The infected medium was exchanged with a fresh medium after two hours.
Appropriately transfected cells were washed with cold PBS twice, and a reporter lysis buffer (Promega) was used and lysed in a culture dish. Luciferase analysis was performed using a luciferase analysis system (Promega Corporation, Madison, Wis.). A luciferase activity was recorded in Luminometer 20/20^n (Turner BioSystems, Sunnyvale, Calif.) according to instructions of the manufacturer. The luciferase activity was normalized to a β-galactosidase activity. For β-galactosidase analysis, CMV-β-galactosidase was transfected with luciferase reporter genes. All pieces of data were represented as mean±standard deviation of the results from at least three independent experiments.
In order to examine an effect of sLZIP on the transcriptional activity of PPARγ2, 293T cells were temporarily transfected with PPARγ2 (0.5 μg), β-galactosidase (0.1 μg), FABP4-Luc reporter genes (0.2 μg) and sLZIP at different contents (0.1 to 0.5 μg). After the transfection, the cells were stimulated with or without 10 nM of rosiglitazone (RZD) (FIG. 1A), pioglitazone (PZD) (FIG. 1B), and troglitazone (TZD) (FIG. 1C). A relative luciferase activity was analyzed with or without cell ligand treatment 24 hours after transfection. Also, the 293T cells were transiently transfected with si-sLZIP at different contents (50 and 100 nM), and the cells were treated or not treated with RZD (FIG. 1D). FABP4-Luc stable C3H10T1/2 cells were infected with a sLZIP-expressing adenovirus, and then differentiated into adipocytes for 4 days (FIG. 1E). A luciferase activity was normalized to a β-galactosidase activity and represented as a relative activity (fold change). All experiments were repeated three times, and bars in the graph represent mean±standard deviation. *, P<0.05; **, P<0.01
For this purpose, 293T cells were transiently transfected with PPARγ2 (0.5 μg), β-galactosidase (0.1 μg), FABP4-Luc reporter genes (0.2 μg) and sLZIP (0.1 μg). After the transfection, the cells were stimulated with or without 10 nM of RZD and 10 nM of TSA (FIG. 4A). A promoter activity was measured according to luciferase analysis. In the 293T cells, FABP4-Luc reporter genes, sLZIP, PPAR, β-galactosidase, and 100 nM of si-RNAs and HDAC1, 2, 3 and 8 for a control group were expressed. After the transfection, the cells were stimulated with or without 10 nM of RZD, and a promoter activity was measured (FIG. 4B). 293T cells were temporarily transfected with FABP4-Luc reporter genes, PPARγ2, β-galactosidase, HDAC3 (0.5 μg) and sLZIP (0.1 μg). After the transfection, the cells were stimulated with or without 10 nM of RZD, and luciferase analysis was performed (FIG. 4C). A luciferase activity was normalized to a β-galactosidase activity and represented as a relative intensity (fold change). All experiments were repeated three times, and bars in the graph represent mean±standard deviation. GFP-sLZIP expression constructs were expressed in C3H10T1/2 cells, rabbit anti-HDAC3 antibodies and Texas Red-labeled anti-rabbit antibodies were used and analysis was performed under a fluorescence microscope. The nucleus was stained with DAPI (FIG. 4D). […]
(In general: A reporter such as luciferase makes a cellular process visible.)

Turning to “CC domains of sLZIP: CC-terminal deletion mutant of sLZIP (297-354), contains proline-rich region (YMPQAPSAEPPLEWPFPDLFSEPLCRGPILPLQANLTRKGGWLPTGSPSVILQDRYSG; also: fused to dimerising Fc or GST)”, the “interaction with PPARγ2” value in data set [1] is reported as “interacted with PPARγ2”.
Regarding “HDAC3: siRNA used to knock down HDAC3, SEQ ID NO: 11 and 12 (chain 1 GCCGGUUAUCAACCAGGUA; chain 2 UACCUGGUUGAUAACCGGC; 3' dTdT, sugars by position and backbone not given here) [reference compound]”, in data set [2], the “sLZIP-mediated PPARγ2 transcriptional activity” value is “significantly increased”.
Consider “si-sLZIP: siRNA for sLZIP, SEQ ID NO: 5 and 6 (+dTdT) (chain 1 GGACCCAGAUGACUCCACAGCAUAU; chain 2 AUAUGCUGUGGAGUCAUCUGGGUCC; 3' dTdT, sugars by position and backbone not given here) [reference compound]”, for which, in data set [2] (si-sLZIP 50 and 100 nM, treated or not treated with RZD), the “transcriptional activity of PPARγ2 (relative luciferase activity)” value is listed as “increased the transcriptional activity of PPARγ2”.
Regarding “siRNA for HDAC1: siRNA against HDAC1, SEQ ID NO: 7 and 8 (chain 1 CGACUGUUUGAGAACCUUA; chain 2 UAAGGUUCUCAAACAGUCGCU; 3' dTdT, sugars by position and backbone not given here) [reference compound]”, the “sLZIP-mediated PPARγ2 transcriptional activity” value in data set [2] is “not involved in sLZIP-mediated PPARγ2 regulation”.
On the same count and under the same terms, the value for “siRNA for HDAC2: siRNA against HDAC2, SEQ ID NO: 9 and 10 (chain 1 GGUCAAUAAGACCAGAUAA; chain 2 UUAUCUGGUCUUAUUGACCG; 3' dTdT, sugars by position and backbone not given here) [reference compound]” was “not involved in sLZIP-mediated PPARγ2 regulation”.
In the case of “siRNA for HDAC8: siRNA against HDAC8, SEQ ID NO: 13 and 14 (chain 1 CAUUCAGGAUGGCAUACAA; chain 2 UUGUAUGCCAUCCUGAAUGGG; 3' dTdT, sugars by position and backbone not given here) [reference compound]”, in data set [2], the “sLZIP-mediated PPARγ2 transcriptional activity” value is given as “not involved in sLZIP-mediated PPARγ2 regulation”.

B1: C domains of sLZIP: C-terminal deletion mutant of sLZIP (229-354) (protein)
chain: MYSSDTRGSLPAEHGVLSRQLRALPSEDPYQLELPALQSEVPKDSTHQWLDGSDCVLQAPGNTSCLLHYMPQAPSAEPPLEWPFPDLFSEPLCRGPILPLQANLTRKGGWLPTGSPSVILQDRYSG
modifications: left off: a dimerising Fc or GST
With B1, the “interaction with PPARγ2” value in data set [1] is “interacted with PPARγ2”.
